In PubChem BioAssay (NCI):
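Briefly, cells in 96-well plates were exposed to five compound concentrations for 48 h, and endpoints were estimated by linear interpolation. The concentration for full growth arrest is given as TGI.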

What was measured:
Assay in all cases: inhibition of tumour cell growth, NCI panel, 48 h
EKVX NSCLC = test system: EKVX NSCLC
UO-31 renal = test system: UO-31 renal
IGROV1 ovarian = test system: IGROV1 ovarian
SK-MEL-5 melanoma = test system: SK-MEL-5 melanoma
TK-10 renal = test system: TK-10 renal
A498 renal = test system: A498 renal
SF-539 CNS = test system: SF-539 CNS
HOP-62 NSCLC = test system: HOP-62 NSCLC
NCI-H23 lung = test system: NCI-H23 lung
MALME-3M melanoma = test system: MALME-3M melanoma
NCI-H460 lung = test system: NCI-H460 lung
RXF 393 renal = test system: RXF 393 renal
MOLT-4 leukemia = test system: MOLT-4 leukemia
A549 NSCLC = test system: A549 NSCLC
SK-OV-3 ovarian = test system: SK-OV-3 ovarian
SK-MEL-28 melanoma = test system: SK-MEL-28 melanoma
MDA-MB-435 = test system: MDA-MB-435
MDA-N = test system: MDA-N
SR leukemia = test system: SR leukemia
BT-549 breast = test system: BT-549 breast

SMILES | TGI (EKVX NSCLC) [µM] | TGI (UO-31 renal) [µM] | TGI (IGROV1 ovarian) [µM] | TGI (SK-MEL-5 melanoma) [µM] | TGI (TK-10 renal) [µM] | TGI (A498 renal) [µM] | TGI (SF-539 CNS) [µM] | TGI (HOP-62 NSCLC) [µM] | TGI (NCI-H23 lung) [µM] | TGI (MALME-3M melanoma) [µM] | TGI (NCI-H460 lung) [µM] | TGI (RXF 393 renal) [µM] | TGI (MOLT-4 leukemia) [µM] | TGI (A549 NSCLC) [µM] | TGI (SK-OV-3 ovarian) [µM] | TGI (SK-MEL-28 melanoma) [µM] | TGI (MDA-MB-435) [µM] | TGI (MDA-N) [µM] | TGI (SR leukemia) [µM] | TGI (BT-549 breast) [µM]
COc1c2c(c(OC)c3c(=O)cc(C/C(=N/NC(=O)C[n+]4ccccc4)C(=O)Nc4cc(C)ccc4C)oc13)OCO2 | > 100 | > 100 | > 100 | > 100 | > 100 | > 100 | > 100 | > 100 | > 100 | > 100 | > 100 | > 100 | > 100 | > 100 | > 100 | > 100 | – | – | – | –
CC1=NN(c2cccc(Cl)c2)C(=N/c2nc3ccccc3s2)/C1=C\c1ccccc1O | > 100 | > 100 | > 100 | 46.2 | > 100 | 52.4 | > 100 | > 100 | 70.1 | – | 84.4 | > 100 | 87.4 | – | 81.1 | 76.3 | > 100 | 93.5 | 77.3 | –
CN(OC(=O)CC(=O)c1ccccc1)C(=O)Cc1ccccc1 | > 100 | > 100 | > 100 | > 100 | > 100 | > 100 | > 100 | > 100 | > 100 | > 100 | > 100 | – | – | > 100 | > 100 | – | – | – | > 100 | –
COC1/C=C/C(C)C(C(C)C(OC)C(C)CCC(=O)C(C)C(CC(=O)O)OC)OC(=O)/C=C/C=C(\C)CC(OC)C(OC)C2=CC(=O)O[C@@H](C(C)C(OC)CC(OC)/C=C/C(C)C(O)C1)[C@H]2O (stereo partly drawn) | 0.175 | 0.15 | 0.0297 | 0.242 | 0.306 | 0.365 | – | 0.468 | 0.722 | – | > 1.07 | – | > 1.07 | 0.437 | 0.289 | 0.267 | 1.02 | > 1.07 | > 1.07 | –
CCCOP1(=O)C=C(C)C(Cl)=C(C)C1 (stereo not drawn) | > 100 | > 100 | > 100 | 55.3 | 63.9 | – | 63.8 | > 100 | 37 | – | > 100 | 57 | 64.9 | 61.3 | > 100 | 43.5 | – | – | 61.8 | –
CC1=CC(=C(c2ccc(N)c(C)c2)c2ccc(N)c(C)c2)C=CC1=N | 45.8 | 84.9 | 71.8 | 5.75 | > 66.2 | > 100 | 14.5 | 10.4 | 12.5 | 11.2 | > 31.6 | 51.2 | 30.9 | 28.6 | 30.4 | 19.2 | – | – | 18.3 | –
CC12CC(=O)OC(Cc3ccccc31)O2 (stereo not drawn) | > 100 | > 100 | > 100 | – | > 100 | – | > 100 | > 100 | > 100 | > 100 | > 100 | > 100 | > 100 | > 100 | > 100 | > 100 | – | – | > 100 | –
N#CC12CCC(O)C(CC1)C2=O (stereo not drawn) | > 100 | > 100 | > 100 | > 100 | > 100 | > 100 | > 100 | > 100 | > 100 | > 100 | > 100 | > 100 | > 100 | > 100 | > 100 | > 100 | – | – | 77.3 | –
CCC(C)C1=C(O)[N+]2([O-])Oc3ccc(-c4c(O)c(O)c(-c5ccc(O)cc5)c(OC(C)=O)c4OC(C)=O)cc3OC2(C(C)CC)C(=O)N1O (stereo not drawn) | > 50 | > 50 | > 50 | > 50 | > 50 | > 50 | > 50 | – | > 50 | > 50 | > 50 | > 50 | > 50 | > 50 | > 50 | > 50 | > 50 | > 50 | > 50 | –
COc1cc(/C=C2\N=C(c3ccccc3)N(c3ccc(S(=O)(=O)Nc4nccs4)cc3)C2=O)ccc1O | > 100 | > 100 | > 100 | > 100 | > 100 | > 100 | > 100 | > 100 | > 100 | > 100 | > 100 | > 100 | > 100 | > 100 | > 100 | – | > 100 | – | > 100 | > 100
COc1cc2c(cc1C)NC(=O)/C2=C\c1cccnc1 | 52.9 | 39.5 | – | 33.5 | 31.7 | 26.1 | 51.7 | 51.9 | 23.3 | 30.2 | 85.4 | 43.1 | 60.1 | 71.7 | 43.9 | > 100 | 50.1 | – | – | 96.9
CCCCC1=C(C(=O)N2CCOCC2)C2(OCCO2)C1Cl (stereo not drawn) | > 100 | > 100 | > 100 | 39.6 | > 100 | > 100 | 37.8 | > 100 | > 100 | > 100 | – | 81.6 | > 100 | 48.9 | > 100 | 53.6 | 67.8 | 39.7 | – | –
CC1=CCP(C(F)(F)F)P(C(F)(F)F)C1 (stereo not drawn) | > 100 | > 100 | > 100 | > 100 | > 100 | > 100 | > 100 | > 100 | > 100 | > 100 | > 100 | 58.3 | > 100 | > 100 | > 100 | > 100 | – | – | > 100 | –
C[C@@H]1C(=O)O[C@@H]2C[C@@]1(C)[C@@H]1C(=O)C3(O)OC14C2(C)OC(=O)[C@@]4(O)CCC1C3C(O)C=C2CC=CC(=O)[C@@]21C (stereo partly drawn) | > 100 | 87.9 | > 100 | > 100 | > 100 | – | 53.5 | > 100 | – | – | > 100 | 32.8 | 57.1 | > 100 | > 100 | 54.4 | 79.4 | > 100 | 47.8 | –
COC(=O)CC[N+]1([O-])CC1 | > 100 | > 100 | > 100 | > 100 | > 100 | > 100 | > 100 | > 100 | > 100 | > 100 | > 100 | > 100 | > 100 | > 100 | > 100 | > 100 | > 100 | – | > 100 | –
N/C(=N\Nc1cccc(Cl)c1)c1cccnc1 | > 100 | > 55.7 | > 100 | > 88 | > 100 | 87.4 | > 60.8 | > 100 | > 100 | > 100 | > 100 | > 80.3 | > 100 | > 100 | > 100 | > 100 | > 30.1 | – | 64.9 | > 100
C=CCN1C(=O)/C(=C/c2ccccc2)N=C1SC/C=C/C | – | > 100 | > 100 | 47.6 | > 100 | > 100 | > 100 | > 100 | > 100 | – | > 100 | 46.7 | – | > 100 | > 100 | > 100 | > 100 | – | 23.3 | > 100
CN1NC2=NCCN=C3NN(C)C(=NCCN=C1S2)S3 | > 100 | – | > 100 | > 100 | – | > 100 | > 100 | > 100 | > 100 | – | > 100 | > 100 | > 100 | > 100 | – | > 100 | – | – | > 100 | –
CC[N+](C)(C)c1ccc(C(=C2C=CC(=[N+](C)C)C=C2)c2ccc(N(C)C)cc2)cc1 | > 100 | 70.1 | 40.8 | 26.9 | 97.6 | 48.4 | 50.4 | 41.2 | 55 | 66.3 | 22.4 | > 100 | 46.1 | > 100 | 55 | 52.4 | – | – | 35.6 | –
Cc1ccc(-n2nnc3c(NNc4ccccc4)n[nH]c(=O)c32)cc1 | > 100 | – | – | > 100 | 75.4 | – | > 100 | > 100 | > 100 | > 100 | > 100 | – | > 100 | > 100 | – | > 100 | > 100 | – | > 100 | > 100
N#Cc1cccc(Nc2ccccc2SSc2ccccc2Nc2cccc(C#N)c2)c1 | > 21.5 | – | 16.9 | 17 | > 21.5 | – | 17.4 | > 21.5 | > 21.5 | 15.8 | 12.8 | – | 21.4 | > 21.5 | > 21.5 | > 21.5 | 18.2 | – | – | –
Brc1nc2c3ccccc3ncn2c1Br | 95.9 | > 100 | > 100 | 39.3 | > 100 | > 100 | > 100 | > 100 | 56.1 | 33.2 | > 100 | 86.1 | 84.6 | > 100 | > 100 | > 100 | – | – | > 100 | –
